Measured values published in article PMC9919437 (Molecules, 2023).
Read-outs that look alike come from different tables or passages of the source.

Key:
[1] = biological target: T1, BC2L-C-Nt (N-terminal lectin domain of BC2L-C) (Burkholderia cenocepacia, UniProt B4EH86); assay: biochemical; type: binding
[2] = test system: BC2L-C-Nt; assay: STD-NMR competition experiment with α-methyl fucoside; type: binding, Burkholderia cenocepacia; details: 1 mol equiv α-methyl fucoside; for 4 aromatic protons only
Method: A great deal of additional information can be gained from STD competition assays, where a known binder is added to a protein–ligand mixture with the aim of displacing the ligand under study and confirm that they are both competing for the same binding site. […] The same competition experiment was performed for 4 in the presence of α-methyl fucoside. The reduction in STD intensity after the addition of the monosaccharide can be evaluated only for the aromatic protons, since the signals of galactose and methyl fucoside overlap in the region 3.8–3.6 ppm, and can be estimated around 60% (Table S2).
NMR experiments were performed on 400 MHz Bruker Avance III and 600 MHz Bruker Avance spectrometers at 298 K in deuterated or aqueous phosphate buffer at pH 7.4. When required, water suppression was achieved by excitation sculpting sequence from standard Bruker library. STD NMR experiments were performed using WATERGATE 3-9-19 pulse sequence for water suppression. […] Intensities of all STD effects (absolute STD) were calculated by division through integrals over the respective signals in STD reference spectra. The different signal intensities of the individual protons are best analyzed from the integral values in the reference and STD spectra, respectively. […]

[3] = biological target: T1, BC2L-C-Nt (N-terminal lectin domain of BC2L-C); details: cited from earlier work

T1 sequence (B4EH86 1-132 limits assumed): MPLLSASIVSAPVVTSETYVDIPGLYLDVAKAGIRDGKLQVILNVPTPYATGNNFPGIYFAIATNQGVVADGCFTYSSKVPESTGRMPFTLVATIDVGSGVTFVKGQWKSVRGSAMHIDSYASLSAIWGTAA

For `C[C@@H]1O[C@H](NC(=O)c2ccc(-c3cccc(CN)c3)o2)[C@@H](O)[C@H](O)[C@@H]1O` [compound 3], the “times less potent than the H-type 1 tetrasaccharide” value [1] was 3 and the “decrease of STD signal of the ligand after addition of α-methyl fucoside” value [2] was 20–26%.

In the case of `NCc1cccc(-c2ccc(C(=O)NC3OC(CO)C(O)C(O)C3O)o2)c1` (centres unmarked) [compound 4], the “factor by which activity is lower than that of 3” value [1] is reported as 2.5, the Kd ([1]; KD) is reported as 390 µM and the “decrease of STD signal of the ligand after addition of α-methyl fucoside” value [2] is reported as “around 60%”.

For `CC(=O)N[C@H]1[C@H](O[C@H]2[C@@H](O)[C@@H](CO)OC(O)[C@@H]2O)O[C@H](CO)[C@@H](O)[C@@H]1O[C@@H]1O[C@H](CO)[C@H](O)[C@H](O)[C@H]1O[C@@H]1O[C@@H](C)[C@@H](O)[C@@H](O)[C@@H]1O` (some centres unmarked) [H-type 1 tetrasaccharide, Fucα1-2Galβ1-3GlcNAcβ1-3Gal, reference compound], the “n (stoichiometry)” value [1] was 0.81 and the Kd ([1]; pH 7, read-out: KD) was 56 ± 4.5 µM.

In the case of `C[C@@H]1O[C@H](C#Cc2ccc(C(C)(C)CN)cc2)[C@@H](O)[C@H](O)[C@@H]1O` [compound 1], the Kd [3] is listed as 290 µM.
